Experimental data published in patent US7906308B2, “Phosphorylation and regulation of Akt/PKB by the rictor-mTOR complex” (Whitehead Institute for Biomedical Research, priority 2005, dated 2011).

Key:
rictor-mTOR complex = target: T1, rictor-mTOR complex (Homo sapiens, UniProt P42345); test: rictor-mTOR immunoprecipitate kinase assay with Akt1/PKB1 as substrate; assay type: biochemical; details: immunoprecipitates from HEK-293T or HeLa cells; FIG. 3C
T1 construct: Immunoprecipitates prepared from lysates of HEK-293T or HeLa cells with the indicated antibodies; endogenous in cells; host or cells: A1: HEK-293T or HeLa; A11: PC3, BJAB, Jurkat, HeLa, H460 (treated with rapamycin before lysis)
Procedure: For all immunoprecipitation experiments the lysis buffer contained 0.3% CHAPS instead of 1% Triton in order to preserve the integrity of the mTOR complexes (D. D. Sarbassov et al., Curr Biol 14, 1296 (2004); D.-H. Kim et al., Cell 110, 163 (2002)). 4 μg of the indicated antibodies were added to the cleared cellular lysates and incubated with rotation for 90-min. 25 μl of a 50% slurry of protein G-sepharose was then added and the incubation continued for 1 h. Immunoprecipitates captured with protein G-sepharose were washed four times with the CHAPS Lysis Buffer and once with the rictor-mTOR kinase buffer (25 mM Hepes pH 7.5, 100 mM potassium acetate, 1 mM MgCl2). […] After a quick spin, the supernatant was removed from the protein G-sepharose and analyzed by immunoblotting (D.-H. Kim et al., Cell 110, 163 (2002)). […] Supernatants were used in the Akt1/PKB1 kinase assay as described below and were also analyzed by immunoblotting. The pelleted G-sepharose beads were also analyzed by immunoblotting to determine the levels of rictor, mTOR, and raptor in the immunoprecipitates. Akt1/PKB1 kinase activity was determined using Crosstide (Upstate Biotechnology, #12-331) as substrate as recommended by the manufacturers protocol. […] After the washing, the P81 squares were dried and radioactivity read in a scintillation counter.

PC3 cells [1] = details: literature (Chinni & Sarkar); cited from earlier work
PC3 cells [2] = test: apoptosis by DNA fragmentation (Cell Death Detection Elisa); details: PC3 cells expressing wild-type or S473D Akt1/PKB1, 100 μM
Procedure: Cells were selected for one week in 200 μg/ml hygromycin before use. 15,000 PC3 (MSCV controls, WT Akt1/PKB1, or 473D Akt1/PKB1) cells were seeded in the wells of a 96 well-plate and cultured overnight. The next day the cells were rinsed once in serum-free medium and then cultured for 48 hrs in serum-free medium containing either DMSO (the small molecule vehicle), 100 nM rapamycin, 100 μM indole-3-carbinol, or both rapamycin and indole-3-carbinol. When indole-3-carbinol was used, 0.002% BSA was added to the medium. After 48 hours in culture all cells (adherent and floating) were processed with the Cell Death Detection Elisa plus (Roche, cat# 1774425) as described by the manufacturer.

[3] = food intake during 7-day treatment; assay type: in vivo, mice; details: 10 mg/kg daily
Procedure: (§1) 1 mg of rapamycin was dissolved in 20 μl of ethanol, which was then diluted with Ringer's saline solution to a final concentration of 1 mg/ml directly before use. Three-month old male C57BL/6NTac (Taconic) mice were administered daily intraperitioneal injections of 10 mg/kg rapamycin or the drug vehicle for 7 days. Mice were then euthanized with CO2, organs were harvested into RIPA buffer, and homogenized with mechanical disruption followed by sonication. […] The experiment was repeated twice with similar results.

mTORC2 assembly = mTORC2 assembly (Homo sapiens, UniProt P42345+P62942); test: 35S pulse-chase of newly synthesized mTOR bound to rictor; assay type: cell-based; details: 100 nM
Chain of mTORC2 assembly (P62942 2-108 limits assumed, other chains not shown): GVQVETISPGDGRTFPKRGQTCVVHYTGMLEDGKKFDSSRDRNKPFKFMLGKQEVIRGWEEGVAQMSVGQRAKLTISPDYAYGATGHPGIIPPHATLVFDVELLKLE
Procedure: 4×10^6 Hela or PC3 cells growing in 100 mm dishes were treated with 100 nM rapamycin or vehicle control for 20 minutes, rinsed once in methionine- and cysteine-free DMEM, and then incubated in 3.5 ml of the same medium containing 10% dialyzed serum and 0.1 mCi/ml of ^35S-methionine/^35S-cysteine (Express Protein Labeling Mix, Perkin Elmer). After allowing the cells to label for 30 minutes, the cells were washed once in the normal culture medium and incubated in fresh medium for the periods of time indicated in the figures. […] Quantification was performed using images acquired with a phosphoimager.

[4] = Morrisett et al. 2003; cited from earlier work
[5] = tissue penetration with phospho-S6 as marker; assay type: in vivo, mice; details: 10 mg/kg intraperitoneal daily
Procedure: as §1

rictor = rictor (UniProt Q6R327)
[6] = target: full length, wild-type Akt1/PKB1 (inactive, Upstate Biotechnology #14-279) (UniProt P31749)
Chain of full length, wild-type Akt1/PKB1 (inactive, Upstate Biotechnology #14-279) (P31749 whole entry, looked up, tested part not stated): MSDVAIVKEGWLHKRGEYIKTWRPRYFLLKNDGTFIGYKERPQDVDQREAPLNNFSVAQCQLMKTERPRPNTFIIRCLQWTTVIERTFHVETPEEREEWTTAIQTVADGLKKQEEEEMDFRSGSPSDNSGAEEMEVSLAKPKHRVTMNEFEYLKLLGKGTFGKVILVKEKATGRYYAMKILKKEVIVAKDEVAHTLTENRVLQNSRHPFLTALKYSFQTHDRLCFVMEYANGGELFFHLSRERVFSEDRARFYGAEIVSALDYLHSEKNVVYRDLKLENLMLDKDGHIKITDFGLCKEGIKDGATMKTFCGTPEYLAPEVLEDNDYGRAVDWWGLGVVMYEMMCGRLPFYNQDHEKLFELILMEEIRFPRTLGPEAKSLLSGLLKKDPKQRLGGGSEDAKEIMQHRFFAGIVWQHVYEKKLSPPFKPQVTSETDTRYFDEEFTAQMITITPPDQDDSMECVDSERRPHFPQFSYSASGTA

## CN[C@@H]1C[C@H]2O[C@@](C)([C@@H]1OC)n1c3ccccc3c3c4c(c5c6ccccc6n2c5c31)C(=O)NC4 [Staurosporine, staurosporine]
rictor-mTOR complex
  in vitro phosphorylation of Akt/PKB by rictor-mTOR: did not decrease

## OCc1c[nH]c2ccccc12 [indole-3-carbinol]
PC3 cells [1]
  apoptosis in PC3 cells: known to induce apoptosis
PC3 cells [2]
  induction of apoptosis: decreased the capacity of indole-3-carbinol to induce apoptosis

## CO[C@H]1C[C@@H]2CC[C@@H](C)[C@@](O)(O2)C(=O)C(=O)N2CCCC[C@H]2C(=O)O[C@H]([C@H](C)C[C@@H]2CC[C@@H](O)[C@H](OC)C2)CC(=O)[C@H](C)/C=C(\C)[C@@H](O)[C@@H](OC)C(=O)[C@H](C)C[C@H](C)/C=C/C=C/C=C/1C [rapamycin]
[3]
  food intake versus vehicle: ate similar amounts
mTORC2 assembly; HeLa cells
  interaction between newly-synthesized mTOR and rictor prevented: 80%
mTORC2 assembly; PC3 cells
  interaction between newly-synthesized mTOR and rictor prevented: 100%
[4]
  side effect in patients: hyperlipidemia commonly seen
[5]
  tissue penetration: penetrates all major tissues except the brain

## mTOR (mammalian Target of Rapamycin kinase)
rictor
  in vitro kinase activity of rictor immunoprecipitates towards Akt/PKB: in HeLa and H460 cells treated with rapamycin for 24 hours, a greater amount of mTOR remained bound to rictor and this correlated with a higher level of kinase activity towards Akt/PKB
  in vitro phosphorylation of Akt/PKB by immunoprecipitates: the raptor immunoprecipitates also contain mTOR but did not phosphorylate Akt/PKB

## rictor-mTOR complex
[6]
  phosphorylation of S473 of Akt/PKB in vitro (immunoblot): Rictor-mTOR complexes isolated from HEK-293T or HeLa phosphorylated S473 but not T308 of full length, wild-type Akt/PKB in vitro
